Results on 13 compounds are retold here after PMC9166766 (Experimental & Molecular Medicine, 2022).

The test system of one data set is HIF-1α. Description: HIF-1α stabilization in Jurkat T cells (western blot). In kind it is cell-based. The conditions noted are these: DMOG. The method, then:
Supplementary Fig. 4 No hydroxylation or O -GlcNAcylation occurred in the “PPTP” sequence a Jurkat T cells expressing HA-mCherry -CABIN1 peptide w ere tr eated with DMO G in a dose-dependent manner for 12 h. b Jurkat T cells expressing HA-mCherry-CABIN1 peptide were treated with 500 μ M DMOG in a time-depend ent manner. Each cell lysate was immunoprecipitated with HA antibody and CABIN1 peptide-bound CNA was detected by Western blotting. HIF-1α was det ected as a positive control for DMOG treat ment. c HEK293 T cells were transfected with GST-peptides and GST pull-down assay was conducted.
Hydroxyproline and O-linked glycosylation of the peptides were detected b y Western blotting.
(§1) (1 picture or pasted object on this page, not shown here)
(In general: Immunoblotting shows a protein as a band on a membrane.)

Data set [1] deals with CABIN1 peptide-CNA interaction. Description: Immunoprecipitation of HA-mCherry-CABIN1 peptide and bound CNA from treated Jurkat T cells. The following applies: for CABIN1 peptide binding to CNA, effect of p38 inhibitor: 10 μM inhibitor, 16 h, n = 6. In kind it is cell-based.
From the text: We lysed the cells in IP150 buffer and immunoprecipitated Flag- and HA-tagged proteins with Anti-FLAG ® M2 Affinity Gel (Sigma–Aldrich) and Pierce™ Anti-HA Agarose (Thermo Fisher Scientific), respectively. […] To quantify the western blot results, we measured the band areas using ImageJ (https://imagej.nih.gov/ij/).
Values shown are the mean ± standard deviation.
Data set [2] concerns CABIN1 peptide threonine 9 phosphorylation. Nature of the data set: Phosphorylation of threonine 9 of the expressed peptide in Jurkat T cells (PXpTP western blot, LC-MS/MS). In kind it is cell-based. The conditions noted are these: Jurkat; for phosphorylation of the CABIN1 peptide, effect of p38 inhibitor: 10 μM inhibitor, 16 h, n = 6. From the text: We lysed the cells in IP150 buffer and immunoprecipitated Flag- and HA-tagged proteins with Anti-FLAG ® M2 Affinity Gel (Sigma–Aldrich) and Pierce™ Anti-HA Agarose (Thermo Fisher Scientific), respectively. The composition of the buffer and the subsequent process was described previously. To quantify the western blot results, we measured the band areas using ImageJ (https://imagej.nih.gov/ij/).
We purified HA-mCherry-tagged CABIN1-L-1-2 peptides expressed in Jurkat T cells by immunoprecipitating 4 mg of lysates with Pierce™ Anti-HA Agarose. We eluted the bead-bound proteins by competition with 1 mg/ml HA peptide. After separation by SDS-PAGE and staining with Coomassie Brilliant Blue, we analyzed the purified proteins by LC-MS/MS (ProteomeTech, Inc., Seoul, Korea).
(§2) RU response units, NC negative control.
The phosphorylated threonine of the immunoprecipitated peptide with HA antibody was detected with [PXpTP] antibody. b In vitro kinase assays using purified GST-tagged CABIN1 peptide and PKC downstream kinases. c In vitro kinase assays using purified GST-tagged peptides and kinases included in the MAPK family. d Immunoprecipitation assays using Flag-MAPKs and HA-CABIN1 in HEK293T cells. e, f In vitro kinase assays using p38α and substituted CABIN1 peptides. g Jurkat T cells expressing HA-mCherry-tagged CABIN1 peptide were treated with 10 μM p38α inhibitors for 16 h. Immunoprecipitation was performed with HA antibody and detected by western blotting. h Phosphorylated threonine and peptide-bound CNA of g were measured using ImageJ, and the ratio of phosphorylation and calcineurin binding to the CABIN1 peptide was calculated (n = 6). […] Statistical differences were determined using one-way ANOVA. *p < 0.05, **p < 0.01, ***p < 0.001, CBB Coomassie Brilliant Blue, NC negative control.

Data set [3] deals with CNA (His-tagged calcineurin catalytic subunit). Description: Surface plasmon resonance (Biacore T200).
Experimental: Using a Biacore T200 (Cytiva), we captured the biotin-labeled peptides on the surface of a Series S Sensor Chip SA (Cytiva). […] Each cycle was performed at 25 °C at a flow rate of 30 μl/min with 120 s of contact and 240 s of dissociation. We analyzed the kinetics of interactions using BIAevaluation 3.2 RC1 (Cytiva).
Biotinylated peptide-bound CNA was detected with His antibody. […] CNA concentrations ranged from 1.25, 2.5, 5, and 10 nM. […] Values shown are the mean ± standard deviation.
For data set [4], the system named is CNA (calcineurin catalytic subunit). The following applies: biotinylated peptides, His-CNA. The method, then:
(§3) GST-tagged peptides and His-tagged CNAα and β2 were expressed in Escherichia coli BL21(DE3)pLysS. When the OD600 reached 0.5, we treated the bacteria with IPTG (0.1 mM overnight at 18 °C or 1 mM for 4 h at 37 °C). We purified the proteins as described previously. We performed a His-pulldown assay with 0.5 ml of IP150 buffer with 0.5 mM EDTA. We mixed His-tagged CNA with GST-tagged peptides and captured it on Ni-NTA agarose beads (Qiagen, Hilden, Germany). We washed the beads three times with binding buffer and analyzed the proteins by western blotting. We pulled down the GST-tagged peptides using Glutathione Sepharose™ 4 Fast Flow (Cytiva, Marlborough, MA, USA) and the biotin-labeled peptides using Streptavidin Agarose Resin (Thermo Fisher Scientific).
as §2

For data set [5], the system named is CNAβ2 (calcineurin catalytic subunit). Description: Mammalian two-hybrid assay (VP16 AD-CNAβ2 and GAL4 DBD-peptides, pG5-luc) in HEK293T cells. The class given is cell-based. The following applies: for interaction with / binding affinity to CNA (mammalian two-hybrid): CNAβ2, 24 h, repeated three times. As to the method: (§4) To measure the transcriptional activity of NFAT, we cotransfected Jurkat T cells with GST-tagged peptides and NFAT-luc by electroporation. After 24 h, we pretreated the cells with 0.5 μM FK506 for 1 h and then treated them with 40 nM PMA and 1 μM ionomycin for 8 h. For the mammalian two-hybrid assay, we cotransfected HEK293T cells with GAL4 DBD-tagged CABIN1, VIVIT, chimeric and substituted peptides, VP16 activation domain-tagged CNAβ2, and pG5-luc (luciferase reporter plasmid containing the GAL4-responsive promoter) for 24 h. We lysed the harvested cells with a luciferase assay lysis buffer (17 mM KH2PO4, 183 mM K2HPO4, pH 7.8, 0.2% [v/v] Triton X-100) and sonicated them briefly. We measured luciferase activity for each cell lysate using an Infinite M200 (Tecan, Männedorf, Switzerland). In addition, we confirmed the expression level of the transfected proteins by Western blotting.
A mammalian two-hybrid assay using these peptides was performed (bottom). The compositions of the transfected DNA are described in Supplementary Fig. 1a–c. All experiments were repeated three times and are presented as the mean ± standard deviation. […] SE short exposure, LE long exposure, NC negative control, WT wild-type.
(§5) NC negative control, WT wild-type.

Data set [6] has the same test system. Description: Immunoprecipitation assay of Flag-CNAβ2 and tagged peptides in HEK293T cells. In kind it is cell-based.
From the text: as §5, §2, §1

Data set [7] shares this test system. Description: In vitro His-pulldown assay of GST-tagged peptides with His-tagged CNA. In kind it is binding. The following applies: IP150 buffer with 0.5 mM EDTA. As to the method:
as §3, §5, §2

Data set [8] deals with NFAT transcriptional activity. Description: NFAT-luc luciferase reporter assay in Jurkat T cells. The class given is cell-based. The conditions noted are these: GST-tagged CABIN1 peptides, PMA and ionomycin, n = 3, T9V vs T6V. As to the method: as §4, §2, §1
For orientation: Reporter assays use an easily measured gene product as a stand-in for the process of interest.

A further data set deals with p38α. Description: In vitro kinase assay, p38α. The class given is biochemical. The following applies: GST-tagged peptide, 1 h, 30 °C, 50 μM ATP. As to the method: (§6) We used the purified GST-tagged peptides for the in vitro kinase assays with activated recombinant kinases obtained from Proqinase GmbH (Freiburg, Germany). We performed the kinase assays in reaction buffer (50 mM HEPES-NaOH, pH 7.5, 3 mM MgCl2, 3 mM MnCl2, 3 μM sodium orthovanadate, 1 mM dithiothreitol, 50 μM unlabeled ATP, 5 μCi ^32P-γ-ATP) for 1 h at 30 °C. We stopped the reaction by adding 5× sample buffer and separated the proteins using SDS-PAGE. The gel was stained with Coomassie Brilliant Blue, dried, and developed on X-ray film.
(§7) The phosphorylated threonine of the immunoprecipitated peptide with HA antibody was detected with [PXpTP] antibody. b In vitro kinase assays using purified GST-tagged CABIN1 peptide and PKC downstream kinases. c In vitro kinase assays using purified GST-tagged peptides and kinases included in the MAPK family. d Immunoprecipitation assays using Flag-MAPKs and HA-CABIN1 in HEK293T cells. e, f In vitro kinase assays using p38α and substituted CABIN1 peptides. g Jurkat T cells expressing HA-mCherry-tagged CABIN1 peptide were treated with 10 μM p38α inhibitors for 16 h. Immunoprecipitation was performed with HA antibody and detected by western blotting. h Phosphorylated threonine and peptide-bound CNA of g were measured using ImageJ, and the ratio of phosphorylation and calcineurin binding to the CABIN1 peptide was calculated (n = 6). […]

A further data set concerns ERK2. Description: In vitro kinase assay, ERK2. In kind it is biochemical. The conditions noted are these: GST-tagged peptide, 1 h, 30 °C, 50 μM ATP. As to the method:
as §6, §7

For the next data set, the system named is JNK1. Nature of the data set: In vitro kinase assay, JNK1. In kind it is biochemical. The following applies: GST-tagged peptide, 1 h, 30 °C, 50 μM ATP. The method, then:
as §6, §7

Details of data set [9]: method as in PMID 24319282. The following applies: ref [17]; cited from earlier work. The text has this:
FK506 and cyclosporin A, respectively cooperating with FKBP12 or cyclophilin, spatially hinder the substrates’ access to the active site of calcineurin, inhibiting its phosphatase activity[30],[31].

The mark [10] stands for this setting: biotinylated peptide on SA chip, CNA 1.25-10 nM, HBS-EP+ pH 7.4, 25 °C, 30 μl/min, mean ± SD.

No end group written: not given here.

As to `COC(=O)CNC(=O)C(=O)OC` [DMOG, dimethyloxalylglycine], in the data set on HIF-1α, the HIF-1α stabilization entry is on record as “stabilized hypoxia-inducible factor-1alpha (HIF-1α)”. Besides, in data set [1] (DMOG dose-dependent 12 h or 500 μM time-dependent), the “CABIN1 peptide and CNA interaction, effect of DMOG” value is “did not affect the CABIN1 peptide and CNA interaction”.
Regarding `Cc1ccccc1C(=O)c1ccc(Nc2ccc(Br)cc2N)cc1Cl` [EO 1428], the “phosphorylation of the CABIN1 peptide, effect of p38 inhibitor” value in data set [2] is listed as “significantly reduced phosphorylation of the CABIN1 peptide”. The “CABIN1 peptide binding to CNA, effect of p38 inhibitor” value in data set [1] is on record as “decreasing its binding affinity for CNA”.
In the case of `CCCCCCCCCCCCCC(=O)O[C@@H]1[C@@H](C)[C@@]2(O)[C@@H](C=C(CO)C[C@]3(O)C(=O)C(C)=C[C@@H]23)[C@@H]2C(C)(C)[C@]12OC(C)=O` [PMA, phorbol myristate acetate], in data set [2] (40 nM PMA, two hours after treatment), the “CABIN1 peptide phosphorylation after PMA” value was “CABIN1 peptide phosphorylation increased”.
As for `CCc1nc(-c2cccc(C)c2)c(-c2ccnc(NC(=O)c3ccccc3)c2)s1` [TAK 715], in data set [2], the “phosphorylation of the CABIN1 peptide, effect of p38 inhibitor” value was “significantly reduced phosphorylation of the CABIN1 peptide”. The “CABIN1 peptide binding to CNA, effect of p38 inhibitor” value in data set [1] is reported as “decreasing its binding affinity for CNA”.
In the case of “Biotin-AAAMAGFPPEITVTPP{pTHR}P [p-CABIN1-L-1]”, in data set [3] (SPR, phosphorylated vs unphosphorylated CABIN1 peptide), the “increase in binding affinity by phosphorylation of the 9th threonine” value was “increased the binding affinity by approximately threefold”. In addition, in data set [3] (setting [10]), the “Ka (association rate)” value was 3393.3±380.8 1/MS and the “Kd (dissociation rate)” value was 5.79e-4±3.2e-5 1/S. Besides, the “affinity for CNA (streptavidin pulldown)” value in [4] is “dramatically increased the affinity for CNA”.
In the case of “CABIN1-L-1-1: CABIN1-L-1 with N-terminal residues removed (PPEITVTPPTP; also: GAL4 DNA-binding domain tag)”, the “interaction with / binding affinity to CNA (mammalian two-hybrid)” value in data set [5] was “still bound to CNA”.
Same read-out and setting: in the case of “CABIN1-L-1-3: CABIN1-L-1 with N-terminal residues removed (EITVTPPTP; also: GAL4 DNA-binding domain tag)” it was “lost its binding affinity”; in that of “CABIN1-L-2: CABIN1-L with C-terminal residues removed (FPPEITVTPPT; also: GAL4 DNA-binding domain tag)”, “completely lost its binding affinity to CNA”.
On the same count and under the same terms, in the case of “CABIN1-L: first 13-amino acid segment containing the PxIxIT motif, from CABIN1-14 (FPPEITVTPPTPT; also: GAL4 DNA-binding domain tag)” it was “significantly stronger affinity for CNA than CABIN1-14”.
Take “T6V: CABIN1 peptide with threonine 6 substituted with valine (PEITVVPPTP; also: GST and HA tags, end not given here)”: in data set [6], the “interaction with CNA by immunoprecipitation” value was “abolished the interaction”. In addition, the “interaction with CNA in vitro (His-pulldown)” value in [7] is given as “abolished the interaction”.
As to “T9V: CABIN1 peptide with threonine 9 substituted with valine (PEITVTPPVP; not fully specified)”, in data set [6], the “interaction with CNA by immunoprecipitation” value was “abolished the interaction in the cellular experiment”. In addition, the “NFAT transcriptional activity restored by substitution” value in data set [8] is “restored the CABIN1-suppressed transcriptional activity of NFAT more efficiently than the T6V substitution”. Besides, the “interaction with CNA in vitro (His-pulldown)” value in [7] was “not in vitro”.
As to “VIVIT PPTP: chimeric peptide with C-terminal sequence of VIVIT swapped for PPTP of CABIN1 (PVIVITPPTP; also: GAL4 DNA-binding domain tag)”, the “phosphorylation by p38α” value in the data set on p38α is “phosphorylated”. Besides, the “phosphorylation by ERK2” value with ERK2 is on record as “phosphorylated”. Besides, the “phosphorylation by JNK1” value in the data set with JNK1 is recorded as “phosphorylated”. Moreover, the “fold enhancement of interaction with CNA, VIVIT PPTP vs. L-1-2 WT (effect of N-terminal PVIVIT)” value in data set [5] (CNAβ2, VIVIT PPTP vs. L-1-2 WT) was found to be 1.93 fold. Besides, the “fold enhancement of interaction with CNA, VIVIT PPTP vs. VIVIT 10-mer (effect of C-terminal PPTP)” value in [5] (CNAβ2, VIVIT PPTP vs. VIVIT 10-mer) is on record as 4.76 fold.
For the compound cyclosporin A, the side effects result in data set [9] is “nephrotoxicity, fibrogenesis, neurotoxicity, and diabetes”.
